Ends that are not written are not given here. Peptide text beside a SMILES is read from it.
System: Pituitary cells from female Sprague-Dawley rats
Experiment: LH and FSH release from rat pituitary cell culture
Format: cell-based
Protocol: Pituitary cells from female Sprague-Dawley rats were established in cell culture by the method of K. Nikolics et al., "Peptides" 2: 65-73 (1981). 1 ml of about 1×10^-8 molar concentration of GAP or LHRH in medium 199 (a nutrient medium) was added to a four day pituitary cell culture per 5×10^5 cells. After 4 hours incubation at 37° C. in 5 percent CO2 /95 percent air the cell culture supernatant fluids were assayed for release of LH and FSH.
The anterior pituitary cell culture from female Sprague-Dawley rats was prepared as described in Example 6. In FIG. 7A the indicated concentrations of GAP (open circles, 10^-11 M; open squares, 3×10^-11 M; closed circles 10^-10 M; open squares, triangle 10^-8 M) were incubated with 5×10^5 cells/ml medium in 24-well culture plates for the indicated time. Media were assayed for PRL and values were expressed in terms of rPRL-RP-2 reference protein (National Pituitary and Hormone Program). The points are means ± standard deviation of four parallel culture wells of which duplicate samples were assayed by RIA. Basal levels were determined from eight parallel wells. The curves shown represent data obtained in three to five independent cell cultures.

[1] = 10^-8 M test sample, 4 hours incubation at 37° C., four day pituitary cell culture, supernatant

Compound: CC(C)C[C@H](NC(=O)[C@H](CC(=O)O)NC(=O)[C@H](CCCNC(=N)N)NC(=O)[C@H](CC(C)C)NC(=O)[C@@H]1CCCN1C(=O)[C@H](CO)NC(=O)[C@H](CCCNC(=N)N)NC(=O)[C@@H]1CCCN1C(=O)[C@H](CCC(N)=O)NC(=O)[C@H](Cc1c[nH]cn1)NC(=O)[C@@H](NC(=O)[C@@H](NC(=O)[C@@H](N)CS)[C@@H](C)O)[C@@H](C)O)C(=O)N[C@@H](CCCCN)C(=O)O [CTP-core polypeptide of Example 4, NH2 -cys-thr-thr-his-gln-pro-arg-ser-pro-leu-arg-asp-leu-lys-COOH] (H-CTTHQPRSPLRDLK-OH)
- activity in LH and FSH release (in words) (rat pituitary cells): active in LH and FSH release, albeit at higher concentrations than required for GAP

Compound: CC(C)C[C@H](NC(=O)CNC(=O)[C@H](Cc1ccc(O)cc1)NC(=O)[C@H](CO)NC(=O)[C@H](Cc1c[nH]c2ccccc12)NC(=O)[C@H](Cc1c[nH]cn1)NC(=O)[C@@H]1CCC(=O)N1)C(=O)N[C@@H](CCCNC(=N)N)C(=O)N1CCC[C@H]1C(=O)NCC(N)=O [LHRH]
- FSH (pg)/5 × 10^5 cells [1]: 11403 ± 350 pg/5 × 10^5 cells
- LH (pg)/5 × 10^5 cells [1]: 30503 ± 3342 pg/5 × 10^5 cells
- EC50 (rat anterior pituitary cells, read-out: Half-maximal stimulation of LH release): 800 pM

Compound: DAENLIDSFQEIVKEVGQLAETQRFECTTHQPRSPLRDLKGALESLIEEETGQKKI [GAP]
- ED50 of stimulation of FSH secretion: ~500 pM
